Results taken from PubChem BioAssay AID1259407 (Chemical Carcinogenesis Research Information System (CCRIS), 2018).
Active and inactive are the calls of the source. The rule behind the calls is not given here.

System: CCRIS mutagenicity, Ames/micronucleus/aberration tests
Assay: CCRIS mutagenicity studies
[1] = Test System: AMES SALMONELLA TYPHIMURIUM, Strain/Indicator: TA98, Metabolic Activation: NONE, Method: PREINCUBATION
[2] = Test System: AMES SALMONELLA TYPHIMURIUM, Strain/Indicator: TA100, Metabolic Activation: NONE, Method: PREINCUBATION
[3] = Test System: AMES SALMONELLA TYPHIMURIUM, Strain/Indicator: TA1535, Metabolic Activation: NONE, Method: PREINCUBATION

Measured: mutagenic call

c1ccc2c(c1)ccc1ccccc12
inactive: Test System: AMES SALMONELLA TYPHIMURIUM, Strain/Indicator: TA97, Metabolic Activation: HAMSTER, LIVER, S-9, AROCLOR 1254 (10%), Method: PREINCUBATION inactive; negative | Test System: AMES SALMONELLA TYPHIMURIUM, Strain/Indicator: TA97, Metabolic Activation: NONE, Method: PREINCUBATION inactive; negative | Test System: AMES SALMONELLA TYPHIMURIUM, Strain/Indicator: TA97, Metabolic Activation: NONE, Method: STANDARD PLATE inactive; negative | Test System: AMES SALMONELLA TYPHIMURIUM, Strain/Indicator: TA97, Metabolic Activation: RAT, LIVER, S-9, AROCLOR 1254 (10%), Method: PREINCUBATION inactive; negative | Test System: AMES SALMONELLA TYPHIMURIUM, Strain/Indicator: TA98, Metabolic Activation: HAMSTER, LIVER, S-9, AROCLOR 1254 (10%), Method: PREINCUBATION inactive; negative | [1] inactive; negative | Test System: AMES SALMONELLA TYPHIMURIUM, Strain/Indicator: TA98, Metabolic Activation: NONE, Method: STANDARD PLATE inactive; negative | Test System: AMES SALMONELLA TYPHIMURIUM, Strain/Indicator: TA98, Metabolic Activation: RAT, LIVER, S-9, AROCLOR 1254 (10%), Method: PREINCUBATION inactive; negative | Test System: AMES SALMONELLA TYPHIMURIUM, Strain/Indicator: TA98, Metabolic Activation: RAT, LIVER, S-9, AROCLOR 1254, Method: STANDARD PLATE inactive; negative | Test System: AMES SALMONELLA TYPHIMURIUM, Strain/Indicator: TA98, Metabolic Activation: RAT, LIVER, S-9, PCB, Method: STANDARD PLATE inactive; negative | Test System: AMES SALMONELLA TYPHIMURIUM, Strain/Indicator: TA100, Metabolic Activation: HAMSTER, LIVER, S-9, AROCLOR 1254 (5 OR 30%), Method: PREINCUBATION inactive; negative | Test System: AMES SALMONELLA TYPHIMURIUM, Strain/Indicator: TA100, Metabolic Activation: HAMSTER, LIVER, S-9, AROCLOR 1254 (10%), Method: PREINCUBATION inactive; negative | [2] inactive; negative | Test System: AMES SALMONELLA TYPHIMURIUM, Strain/Indicator: TA100, Metabolic Activation: NONE, Method: STANDARD PLATE inactive; negative | Test System: AMES SALMONELLA TYPHIMURIUM, Strain/Indicator: TA100, Metabolic Activation: RAT, LIVER, S-9, AROCLOR 1254 (5%), Method: PREINCUBATION inactive; negative | Test System: AMES SALMONELLA TYPHIMURIUM, Strain/Indicator: TA100, Metabolic Activation: RAT, LIVER, S-9, AROCLOR 1254 (10%), Method: PREINCUBATION inactive; negative | Test System: AMES SALMONELLA TYPHIMURIUM, Strain/Indicator: TA100, Metabolic Activation: RAT, LIVER, S-9, PCB, Method: STANDARD PLATE inactive; negative | Test System: AMES SALMONELLA TYPHIMURIUM, Strain/Indicator: TA1535, Metabolic Activation: HAMSTER, LIVER, S-9, AROCLOR 1254 (10%), Method: PREINCUBATION inactive; negative | [3] inactive; negative | Test System: AMES SALMONELLA TYPHIMURIUM, Strain/Indicator: TA1535, Metabolic Activation: RAT, LIVER, S-9, AROCLOR 1254 (10%), Method: PREINCUBATION inactive; negative | Test System: E. COLI, Strain/Indicator: WP2 UVRA, Metabolic Activation: HAMSTER, LIVER, S-9, AROCLOR 1254, Method: STANDARD PLATE inactive; negative | Test System: E. COLI, Strain/Indicator: WP2 UVRA, Metabolic Activation: HAMSTER, LIVER, S-9, Method: STANDARD PLATE inactive; negative | Test System: E. COLI, Strain/Indicator: WP2 UVRA, Metabolic Activation: MOUSE, LIVER, S-9, AROCLOR 1254, Method: STANDARD PLATE inactive; negative | Test System: E. COLI, Strain/Indicator: WP2 UVRA, Metabolic Activation: MOUSE, LIVER, S-9, Method: STANDARD PLATE inactive; negative | Test System: E. COLI, Strain/Indicator: WP2 UVRA, Metabolic Activation: NONE, Method: STANDARD PLATE inactive; negative | Test System: E. COLI, Strain/Indicator: WP2 UVRA, Metabolic Activation: RAT, LIVER, S-9, AROCLOR 1254, Method: STANDARD PLATE inactive; negative | Test System: E. COLI, Strain/Indicator: WP2 UVRA, Metabolic Activation: RAT, LIVER, S-9, Method: STANDARD PLATE inactive; negative | Test System: UDS RAT HEPATOCYTES, Strain/Indicator: BROMODEOXYURIDINE INCORP, Metabolic Activation: NONE, Method: FLOW CYTOMETRIC ANALYSIS inactive; negative
active: Test System: AMES SALMONELLA TYPHIMURIUM, Strain/Indicator: TA97, Metabolic Activation: RAT, LIVER, S-9, PCB, Method: STANDARD PLATE active; positive | Test System: AMES SALMONELLA TYPHIMURIUM, Strain/Indicator: TA100, Metabolic Activation: RAT, LIVER, S-9, AROCLOR 1254, Method: STANDARD PLATE active; positive | Test System: AMES SALMONELLA TYPHIMURIUM, Strain/Indicator: TA1535, Metabolic Activation: RAT, LIVER, S-9, AROCLOR 1254, Method: STANDARD PLATE active; positive

[O-][n+]1cc2ncccc2cn1
inactive: [1] inactive; negative | Test System: AMES SALMONELLA TYPHIMURIUM, Strain/Indicator: TA98, Metabolic Activation: RAT, LIVER, S-9, PCB, Method: PREINCUBATION inactive; negative | [2] inactive; negative | Test System: AMES SALMONELLA TYPHIMURIUM, Strain/Indicator: TA100, Metabolic Activation: RAT, LIVER, S-9, PCB, Method: PREINCUBATION inactive; negative

CCCCOCCOP(=O)(OCCOCCCC)OCCOCCCC
inactive: Test System: AMES SALMONELLA TYPHIMURIUM, Strain/Indicator: TA98, Metabolic Activation: HAMSTER, LIVER, S-9, AROCLOR 1254, Method: PREINCUBATION inactive; negative | [1] inactive; negative | Test System: AMES SALMONELLA TYPHIMURIUM, Strain/Indicator: TA98, Metabolic Activation: RAT, LIVER, S-9, AROCLOR 1254, Method: PREINCUBATION inactive; negative | Test System: AMES SALMONELLA TYPHIMURIUM, Strain/Indicator: TA100, Metabolic Activation: HAMSTER, LIVER, S-9, AROCLOR 1254, Method: PREINCUBATION inactive; negative | [2] inactive; negative | Test System: AMES SALMONELLA TYPHIMURIUM, Strain/Indicator: TA100, Metabolic Activation: RAT, LIVER, S-9, AROCLOR 1254, Method: PREINCUBATION inactive; negative | Test System: AMES SALMONELLA TYPHIMURIUM, Strain/Indicator: TA1535, Metabolic Activation: HAMSTER, LIVER, S-9, AROCLOR 1254, Method: PREINCUBATION inactive; negative | [3] inactive; negative | Test System: AMES SALMONELLA TYPHIMURIUM, Strain/Indicator: TA1535, Metabolic Activation: RAT, LIVER, S-9, AROCLOR 1254, Method: PREINCUBATION inactive; negative | Test System: AMES SALMONELLA TYPHIMURIUM, Strain/Indicator: TA1537, Metabolic Activation: HAMSTER, LIVER, S-9, AROCLOR 1254, Method: PREINCUBATION inactive; negative | Test System: AMES SALMONELLA TYPHIMURIUM, Strain/Indicator: TA1537, Metabolic Activation: NONE, Method: PREINCUBATION inactive; negative | Test System: AMES SALMONELLA TYPHIMURIUM, Strain/Indicator: TA1537, Metabolic Activation: RAT, LIVER, S-9, AROCLOR 1254, Method: PREINCUBATION inactive; negative
